Experiments:
[1] = Pilot study: oral daily Kneller's Trione in men, plasma sex hormone profile; type: in vivo, human; details: for change of testosterone-to-estradiol ratio: 14 days, ending vs starting ratio; for TOTAL TESTOSTERONE / ESTRADIOL / DHT: person
Description: The first study subject was a person who was dosed once per day orally with 25 mg per day of Kneller's Trione.
The second study subject was a person who was dosed once per day orally with 50 mg per day of Kneller's Trione.
The third study subject was a person who was dosed once per day orally with 100 mg per day of Kneller's Trione.

[2] = Pilot study: adverse events and safety observations in study subjects; type: in vivo, human

## C[C@]12CCC(=O)C[C@@H]1C(=O)C[C@@H]1[C@@H]2CC[C@]2(C)C(=O)CC[C@@H]12 [Kneller's Trione, 5α-androstane-3,6,17-trione]
[1]; 25 mg daily oral
  change of testosterone-to-estradiol ratio: 130%
[1]; 50 mg daily oral
  change of testosterone-to-estradiol ratio: 28%
[1]; 250 mg per day oral
  effect on bioavailable testosterone level: raised
  effect on total testosterone level: raised
[1]; 500 mg per day oral
  effect on bioavailable testosterone level: raised
  effect on total testosterone level: raised
[1]; 750 mg per day oral
  added benefits with high dosage: no added benefits were seen
[1]; general statement
  changes in plasma estradiol levels in men: no changes outside the accepted normal limits
  effect on plasma testosterone levels in men: substantial and significant increases
[1]; oral administration
  increase of plasma free testosterone levels: more than 100%
[1]; 25 mg per day oral, single dose, DAY 7 (baseline 6,290 pg/mL)
  TOTAL TESTOSTERONE: 6,400 pg/mL
[1]; 25 mg per day oral, DAY 7 (baseline 47 pg/mL)
  ESTRADIOL: 28 pg/mL
[1]; 25 mg per day oral, DAY 7 (baseline 42 ng/dL)
  DHT: 36 ng/dL
[1]; 25 mg per day oral, DAY 14 (baseline 47 pg/mL)
  ESTRADIOL: 23 pg/mL
[1]; 25 mg per day oral, DAY 14 (baseline 42 ng/dL)
  DHT: 49 ng/dL
[1]; 50 mg per day oral, single dose, DAY 7 (baseline 8,570 pg/mL)
  TOTAL TESTOSTERONE: 11,000 pg/mL
[1]; 50 mg per day oral, DAY 7 (baseline 36 pg/mL)
  ESTRADIOL: 35 pg/mL
[1]; 50 mg per day oral, DAY 7 (baseline 47 ng/dL)
  DHT: 46 ng/dL
[1]; 50 mg per day oral, DAY 14 (baseline 36 pg/mL)
  ESTRADIOL: 36 pg/mL
[1]; 50 mg per day oral, DAY 14 (baseline 8,570 pg/mL)
  TOTAL TESTOSTERONE: 11,000 pg/mL
[1]; 50 mg per day oral, DAY 14 (baseline 47 ng/dL)
  DHT: 49 ng/dL
[1]; 100 mg per day oral, DAY 7 (baseline 46 pg/mL)
  ESTRADIOL: 44 pg/mL
[1]; 100 mg per day oral, DAY 7 (baseline 35 ng/dL)
  DHT: 48 ng/dL
[1]; 100 mg per day oral, DAY 14 (baseline 46 pg/mL)
  ESTRADIOL: 34 pg/mL
[1]; 100 mg per day oral, DAY 14 (baseline 35 ng/dL)
  DHT: 41 ng/dL
[2]; 750 mg per day oral
  adverse event causing the subject to withdraw: priaprism
[2]; oral daily dosages 25 mg to 750 mg
  other adverse events noted by any study subject: No other adverse events
